These results are taken from patent publication US6486153B1, “Phenylindole derivatives as 5-HT2A receptor ligands” (Merck Sharp & Dohme Ltd., priority 1997, dated 2002).

Where a name gives a salt, the structure may show the parent alone.

Sequence of human dopamine D2 receptor (P14416 whole entry): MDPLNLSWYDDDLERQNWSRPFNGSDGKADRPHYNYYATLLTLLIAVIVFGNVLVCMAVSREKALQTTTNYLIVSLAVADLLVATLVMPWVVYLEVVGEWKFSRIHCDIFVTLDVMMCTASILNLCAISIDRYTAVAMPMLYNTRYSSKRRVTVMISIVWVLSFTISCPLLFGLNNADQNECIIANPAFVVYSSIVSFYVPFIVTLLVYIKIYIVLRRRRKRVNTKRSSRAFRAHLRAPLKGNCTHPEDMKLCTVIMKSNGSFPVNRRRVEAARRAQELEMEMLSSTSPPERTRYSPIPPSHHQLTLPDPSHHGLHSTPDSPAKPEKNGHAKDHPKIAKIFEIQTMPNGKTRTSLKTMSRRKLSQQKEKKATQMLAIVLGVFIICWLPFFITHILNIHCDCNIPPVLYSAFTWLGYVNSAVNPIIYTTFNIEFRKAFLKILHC

One data set deals with schizophrenic patients. The conditions noted are these: multicentre, placebo-controlled study; cited from earlier work.
For the compound `COc1cccc(C(O)C2CCN(CCc3ccc(F)cc3)CC2)c1OC` (stereo not drawn) [MDL-100,907, (+)-α-(2,3-dimethoxyphenyl)-1-[2-(4-fluorophenyl)ethyl]-4-piperidinemethanol], the “antipsychotic efficacy in clinical study” value is recorded as “demonstrated efficacy” and the “neurological adverse effects in clinical study” value was “no neurological adverse effects”.

Another data set concerns the target human dopamine D2 receptor (Homo sapiens, UniProt P14416). The following applies: cited from earlier work.
Take `COc1cccc(C(O)C2CCN(CCc3ccc(F)cc3)CC2)c1OC` (stereo not drawn) [MDL-100,907, (+)-α-(2,3-dimethoxyphenyl)-1-[2-(4-fluorophenyl)ethyl]-4-piperidinemethanol]: the “activity at the human dopamine D2 receptor” value is on record as “essentially devoid of activity”.

System in a further data set: not given
Conditions: not given
Regarding `c1ccc(-c2ccc3c(CCN4CCCCC4)c(-c4ccccc4)[nH]c3c2)cc1` (as salt: oxalate), the melting point (commonly the temperature of the solid-liquid transition) was in the range of 129 to 131 °C.

As for `CC(Cc1c(-c2ccccc2)[nH]c2ccccc12)N1CCCCC1` (centres unmarked) (as salt: oxalate), the melting point came to 240 °C.

`Clc1cccc2c(CCN3CCCCC3)c(-c3ccccc3)[nH]c12` (as salt: oxalate) had a melting point of 178 to 179 °C.

Compound `Cc1cccc2c(CCN3CCCCC3)c(-c3ccccc3)[nH]c12` (as salt: oxalate) yielded a melting point of 159 to 161 °C.

In turn, `COc1cccc2c(CCN3CCCCC3)c(-c3ccccc3)[nH]c12` (as salt: oxalate) had a melting point of 203 to 205 °C.

In turn, `Brc1cccc2[nH]c(-c3ccccc3)c(CCN3CCCCC3)c12` (as salt: oxalate) returned a melting point above 230 °C.

`Cc1ccc2[nH]c(-c3ccccc3)c(CCN3CCCCC3)c2c1` (as salt: oxalate): the melting point is 163 to 164 °C.

Compound `Fc1ccc2[nH]c(-c3ccccc3)c(CCN3CCCCC3)c2c1` (as salt: trifluoroacetic acid salt) had a melting point of 141 to 143 °C.

As to `Brc1cccc2c(CCN3CCCCC3)c(-c3ccccc3)[nH]c12` (as salt: oxalate), the melting point was 206 to 207 °C.

`Fc1cc(F)c2[nH]c(-c3ccccc3)c(CCN3CCCCC3)c2c1` (as salt: oxalate) had a melting point of 185 to 187 °C.

Compound `COc1cccc2[nH]c(-c3ccccc3)c(CCN3CCCCC3)c12` showed a melting point of 260 to 262 °C.

With `Fc1ccc2c(CCN3CCCCC3)c(-c3ccccc3)[nH]c2c1` (as salt: oxalate), the melting point is 214 to 215 °C.

In the case of `Brc1ccc2c(CCN3CCCCC3)c(-c3ccccc3)[nH]c2c1` (as salt: oxalate), the melting point was above 230 °C.

Compound `Brc1ccc2[nH]c(-c3ccccc3)c(CCN3CCCCC3)c2c1` (as salt: oxalate) gave a melting point of 121 to 122 °C.
